Data reported in patent US10913710B2, “Benzene disulfonamide for the treatment of cancer” (priority 2017, dated 2021).

Experiments:
[1] = target: RPL31 (Ribosomal Protein L31) (Homo sapiens (Human), UniProt P62899); assay: Cellular thermal shift assay / thermal protein profiling in Jurkat cell lysate; details: read-out: shift in melting temperature
PDEδ [2] = target: T1, PDEδ (Homo sapiens (Human), UniProt O43924); assay: Fluorescence polarization competition binding assay: displacement titration of labeled Atorvastatin probe for KD; details: fluorescence polarization assay; activity classes; read-out: KD
Method: Example D.2: Displacement Titrations of Labeled Atorvastatin-Probe for the Determination of KD Values
Displacement Titrations of Labeled Atorvastatin-Probe for the Determination of KD Values:
The purification was followed by size exclusion gel filtration on a Superdex 75 S26/60 column using buffer A (25 mM Tris-HCl, pH 7.5, 150 mM NaCl and 3 mM DTE).

PDEδ [3] = target: T1, PDEδ; assay: Cellular thermal shift assay / thermal protein profiling in Jurkat cell lysate; details: 1 μM
in vitro = details: human, Caco-2, pH 6.5
Method: (§1) Caco-2 Permeability Assay:
(§2) The compound concentration was measured in the receiver as well as the donor well.

[4] = test system: human peripheral blood mononuclear cells (hPMPBC); assay: Cytotoxicity assay with human peripheral blood mononuclear cells; type: cell-based
Method: Cells were incubated with test substances at titrated concentrations ranging between 30 μM and 1.7 nM for 72 h. After the incubation period, the cells were fixed with 10% (wt/vol) trichloroacetic acid and stained for 30 min with sulforhodamine B (SRB) staining solution prior to removing unbound dye by washing repeatedly with 1% (vol/vol) acetic acid. The protein-bound dye is dissolved in 10 mM Tris base solution for OD (optical density) determination at 510 nm using a microplate reader.

[5] = test system: colorectal cancer cell lines DiFi, HCT-116, Hke3, Hkh2, HT29 and SW480; assay: Real time cell analysis (RTCA) proliferation of colorectal cancer cell lines; type: cell-based, human
[6] = test system: mCitrine-KRas in MiaPaCa-2 cells; assay: KRas localization analysis by confocal microscopy; type: cell-based, human; details: 5 μM; MiaPaCa-2 cells ectopically expressing mCitrine-KRas
Method: Panc-TU-1, MiaPaCa-2, PANC-1 and BxPC-3 cell lines were cultured in DMEM supplemented with 10% fetal calf serum, 1% L-glutamine (PAN-Biotech) and 1% non-essential amino acids (PAN-Biotech). The cells were maintained in a humidified incubator at 37° C. and 5% CO2. For microscopy, cells were seeded in four-well Lab-Tek chambers (Thermo Scientific) in DMEM without phenol red, supplemented with 25 mM HEPES. Transfection was performed with either Effectene (Qiagen) or Lipofectamine 2000 (Invitrogen). Confocal images were acquired with a confocal laser-scanning microscope (FV1000, Olympus). For detection of mCitrine-RheB and mCitrine-KRas, the sample was excited using the 488 nm wavelength of an argon laser. Fluorescence signal was collected through an oil immersion objective (×60/1.35 UPlanSApo, Olympus) and spectrally filtered by a band pass filter from 500 nm to 550 nm. For detection of mCherry-PDEδ, a 561 nm diode laser was used for excitation. The fluorescence emission was spectrally filtered by a band pass filter from 600 to 700 nm. Confocal images of cells were segmented into plasma membrane and cytoplasm whereby the plasma membrane segment contained one third of all pixels. The mean intensity of plasma membrane and cytoplasm were normalized to the total mean intensity of each cell at each time point (FIG. 4C).

MiaPaCa-2 cells = assay: Real time cell analysis (RTCA) proliferation; type: cell-based, human
Method: (§3) Panc-TU-1, MiaPaCa-2, PANC-1 and BxPC-3 cell lines were cultured in DMEM supplemented with 10% fetal calf serum, 1% L-glutamine (PAN-Biotech) and 1% non-essential amino acids (PAN-Biotech). The cells were maintained in a humidified incubator at 37° C. and 5% CO2. For microscopy, cells were seeded in four-well Lab-Tek chambers (Thermo Scientific) in DMEM without phenol red, supplemented with 25 mM HEPES. Transfection was performed with either Effectene (Qiagen) or Lipofectamine 2000 (Invitrogen). RTCA measurements of Panc-TU-1, MiaPaCa-2, PANG-1 and BxPC-3 cell lines were performed on a Dual Plate xCELLigence instrument (Roche Applied Science, Indianapolis, Ind.). This device measures a dimensionless cell index which is based on impedance. […] After seeding, cells were allowed to settle for 15 min at room temperature before insertion into the xCELLigence instrument in a humidified incubator at 37° C. with 5% CO2. […] The impedance was measured in 15 min intervals for up to 100 h. Assays were performed in triplicates, each containing two technical duplicates. The cell index was normalized to 1 at the time point of drug administration.

Panc-Tu-I cells = assay: Real time cell analysis (RTCA) proliferation; type: cell-based, human
Method: as §3

[7] = target: interaction between mCherry-PDE6δ and mCitrine-RheB (Homo sapiens (Human), UniProt O43924); assay: FLIM-FRET of mCitrine-RheB and mCherry-PDE6δ interaction in living MDCK cells; type: cell-based; details: fit of dose-response of interacting fraction α, ± s.e.m., read-out: apparent "in-cell" KD
[8] = test system: colorectal cancer cell lines (HCT-116, Hke3, SW480, Hkh2, DiFi, HT29); assay: Apoptosis / cell viability assay (7-AAD staining, flow cytometry); type: cell-based, human; details: all tested cell lines (Hkh2, DiFi, HT29)
Method: Apoptosis assays are performed on a LSR II flow cytometer (BD Bio-science). For this, cells are seeded in 6-well plates with an amount of 2×10^5 cells per well. Cells are treated with different concentrations of compound 19 (Deltasonamide 2) for 24 h. DMSO is used as a control. Subsequently, the supernatant is collected in FACS vials and the cells are washed with 1 mL PBS. Afterwards, cells are detached with 0.5 mL Accutase™ (EMD Millipore Corporation). The detached cells are resuspended in 1 mL PBS and transferred to the respective FACS vials. The vials are centrifuged at 200 g for 5 min. The supernatant is discarded and the cells are washed twice with PBS. Cell pellets are re-suspended in 100 μL PBS containing 5 μL of 7-AAD. Samples are vortexed and incubated in the dark at RT for 15 min. Afterwards, 200 μL PBS are added and the samples are transferred to fresh FACS vials through filter lids. The samples are measured within one hour after transfer using 488 nm as excitation wave length and the emission filter 695/40. The measurements are acquired and gated with the BD FACSDiva™ software.

Caco-2 cells = assay: in vitro; details: 10 μM, 2 hours, 37° C.
Method: as §1, §2

[9] = even at submicromolar concentrations

Kd (PDEδ [2]) [µM] | Papp A→B at 2 h, 10 µM (in vitro) [×10⁻⁶ cm/s] | Papp B→A at 2 h, 10 µM (in vitro) [×10⁻⁶ cm/s] | efflux ratio at 2 h, 10 μM (in vitro) | SMILES | other results
 | 1.6 | 13.7 |  | CNc1nccc(CN(CC2CCNCC2)S(=O)(=O)c2ccc(S(=O)(=O)N(Cc3ccc(Cl)cc3)C3CCCC3)cc2)n1 [Compound 16, N1-(4-Chlorobenzyl)-N1-cyclopentyl-N4-((2-(methylamino)pyrimidin-4-yl)methyl)-N4-(piperidin-4-ylmethyl)benzene-1,4-disulfonamide] | concentration up to which hPMBCs proliferation is not impaired [4]: ≥ 30 µM
0.001 to 0.03 | 0.6 | 0.6 | 0.9 | O=S(=O)(c1ccc(S(=O)(=O)N(Cc2ccc(Cl)cc2)C2CCCC2)cc1)N(Cc1ccccc1)CC1CCNCC1 [Compound 44, N1-Benzyl-N4-(4-chlorobenzyl)-N4-cyclopentyl-N1-(piperidin-4-ylmethyl)benzene-1,4-disulfonamide] | 
0.001 to 0.03 | 0.9 | 2.7 | 2.9 | CNc1nccc(CN([C@H]2CC[C@H](N)CC2)S(=O)(=O)c2ccc(S(=O)(=O)N(Cc3ccc(Cl)cc3)C3CCCC3)cc2)n1 [Compound 19, N1-((trans)-4-aminocyclohexyl)-N4-(4-chlorobenzyl)-N4-cyclopentyl-N1-((2-(methylamino)pyrimidin-4-yl)methyl)benzene-1,4-disulfonamide] | proliferation (RTCA) ([5]; DiFi, HCT-116, Hke3, Hkh2, HT29 and SW480, even at lower micromolar concentrations): strongly reduced proliferation; concentrations showing growth inhibitory effect and reduced cell viability ([5]; cell lines containing oncogenic KRas mutations (HCT-116, Hke3, and SW480)): 1.5 to 3 µM; concentration up to which hPMBCs proliferation is not impaired [4]: ≥ 30 µM; KRas plasma membrane localization [6]: loss of KRas plasma membrane (PM) localization; reduction of growth rate (MiaPaCa-2 cells; at 750 nM): about 50%; proliferation (RTCA) (MiaPaCa-2 cells; [9]): strongly reduced proliferation; reduction of growth (Panc-Tu-I cells; at 1.5 μM): about 50%; proliferation (RTCA) (Panc-Tu-I cells; [9]): strongly reduced proliferation; Kd [7]: 0.061 ± 0.005 µM; concentration showing unspecific toxicity [8]: above 6 μM
 |  |  |  | c1ccc(Cn2c(-c3ccc(OC[C@H](C4CCNCC4)n4c(-c5ccccc5)nc5ccccc54)cc3)nc3ccccc32)cc1 [Deltarasin, reference compound] | Caco-2 pH 6.5/7.4 Papp A→B Arith. Mean (Caco-2 cells): 1.0 10^−6 cm/s; Caco-2 pH 6.5/7.4 Papp B→A Arith. Mean (Caco-2 cells): 5.1 10^−6 cm/s
 |  |  |  | Cc1ccc(-n2nc3c(=O)n(CCCC(=O)NCC(C)c4ccccc4)nc(C)c3c2C)cc1 (centres unmarked) [Deltazinone 1, reference compound] | Caco-2 pH 6.5/7.4 Papp A→B Arith. Mean (Caco-2 cells): 41.1 10^−6 cm/s; Caco-2 pH 6.5/7.4 Papp B→A Arith. Mean (Caco-2 cells): 25.1 10^−6 cm/s
0.001 to 0.03 | 0.4 | 0.5 | 1.1 | CNc1cc(CN(CC2CCNCC2)S(=O)(=O)c2ccc(S(=O)(=O)N(Cc3ccc(Cl)cc3)C3CCCC3)cc2)ccc1C(=O)O [Compound 21, 4-(((4-(N-(4-chlorobenzyl)-N-cyclopentylsulfamoyl)-N-(piperidin-4-ylmethyl)phenyl)sulfonamido)methyl)-2-(methylamino)benzoic Acid] | 
> 1 |  |  |  | COc1ccc(CN(Cc2ccc3c(c2)OCO3)S(=O)(=O)c2ccc(S(=O)(=O)N3CCCC(C)C3)cc2)cc1OC (centres unmarked) [Compound 94, N-(benzo[d][1,3]dioxol-5-ylmethyl)-N-(3,4-dimethoxybenzyl)-4-((3-methylpiperidin-1-yl)sulfonyl)benzenesulfonamide] | 
0.1 to 1 |  |  |  | Cc1ccc(CN(C2CCCC2)S(=O)(=O)c2ccc(S(=O)(=O)N(Cc3ccccn3)c3sccc3C)cc2)cc1Cl [Compound 43] | 

SMILES | Kd (PDEδ [2]) [µM] | Papp A→B at 2 h, 10 µM (in vitro) [×10⁻⁶ cm/s] | Papp B→A at 2 h, 10 µM (in vitro) [×10⁻⁶ cm/s] | efflux ratio at 2 h, 10 μM (in vitro) | other results
Nc1cc(CN(CC2CCNCC2)S(=O)(=O)c2ccc(S(=O)(=O)N(Cc3ccc(Cl)cc3)C3CCCC3)cc2)ccc1C(=O)O [Compound 22, 2-amino-4-(((4-(N-(4-chlorobenzyl)-N-cyclopentylsulfamoyl)-N-(piperidin-4-ylmethyl)phenyl)sulfonamido)methyl)benzoic Acid] | 0.001 to 0.03 | 0.9 | 0.6 | 0.6 | ΔTm at 1 µM [1]: 3 °C; selectivity of protein engagement (only PDE6δ and RPL31 engaged) (PDEδ [3]; 5492 proteins identified): very selective inhibitor; higher signal intensities of soluble PDEδ compared to DMSO controls (PDEδ [3]; […]): 26-28%
